Measurements taken from US20250026748A1, “N-(5-SUBSTITUTED-[(1,3,4-THIADIAZOLYL) OR (THIAZOLYL)])(SUBSTITUTED)CARBOXAMIDE COMPOUNDS AND USE THEREOF FOR INHIBITING HUMAN POLYMERASE THETA” (Repare Therapeutics Inc., priority 2021, published 2025).

Biological target: PolQ ATPase enzyme (1-894) (Homo sapiens (Human), UniProt O75417)
Assay: Polθ ATPase enzymatic assay (0.5 nM enzyme concentration), ADP-Glo
Format: biochemical
Conditions: average IC50; 0.5 nM PolQ ATPase enzyme (1-894)
How it was run: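 Enzyme (0.5 nM) pre-incubated 15 min at rt with 10-point inhibitor series in 50 mM Tris pH 7.5, 10% glycerol, 5 mM DTT, 10 mM MgCl2, 0.1 mg/ml BSA; reaction started with 20 nM fork DNA and 100 μM ATP, run 180 min at rt. ADP-Glo luminescence; IC50 from 4-parameter variable-slope fit.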

Chain of PolQ ATPase enzyme (1-894) (O75417 1-894): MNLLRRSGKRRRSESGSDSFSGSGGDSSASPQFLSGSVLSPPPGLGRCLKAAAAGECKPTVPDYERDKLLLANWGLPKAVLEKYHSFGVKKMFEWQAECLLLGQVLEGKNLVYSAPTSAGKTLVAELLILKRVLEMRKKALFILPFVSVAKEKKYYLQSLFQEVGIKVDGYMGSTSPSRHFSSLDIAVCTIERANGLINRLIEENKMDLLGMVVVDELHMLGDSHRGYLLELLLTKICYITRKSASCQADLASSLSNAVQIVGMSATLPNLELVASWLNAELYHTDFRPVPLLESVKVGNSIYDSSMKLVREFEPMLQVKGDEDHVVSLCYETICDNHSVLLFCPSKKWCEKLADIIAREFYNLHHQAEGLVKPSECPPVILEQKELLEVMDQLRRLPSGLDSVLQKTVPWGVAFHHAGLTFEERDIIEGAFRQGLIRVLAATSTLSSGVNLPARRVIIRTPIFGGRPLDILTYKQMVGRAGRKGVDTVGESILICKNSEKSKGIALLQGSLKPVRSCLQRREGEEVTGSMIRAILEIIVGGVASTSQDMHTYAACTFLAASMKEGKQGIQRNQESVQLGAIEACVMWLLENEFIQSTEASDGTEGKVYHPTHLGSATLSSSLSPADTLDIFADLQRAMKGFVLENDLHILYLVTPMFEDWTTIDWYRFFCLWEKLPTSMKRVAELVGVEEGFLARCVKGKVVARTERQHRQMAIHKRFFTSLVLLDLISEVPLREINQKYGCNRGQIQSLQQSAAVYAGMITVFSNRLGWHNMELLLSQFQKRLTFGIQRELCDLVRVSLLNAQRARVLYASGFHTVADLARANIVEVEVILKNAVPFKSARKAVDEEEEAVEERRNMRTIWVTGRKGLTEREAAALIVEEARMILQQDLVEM

Compared with `COc1ccc(C(F)F)cc1-c1cnccc1C(=O)Nc1nnc(C#CC2CC2)s1` [Compound 56], `COc1ccc(C(F)(F)F)nc1-c1cnccc1C(=O)Nc1nnc(C#CC2CC2)s1` [Compound 329] is higher in IC50: under 0.25 nM for the first, 4.1 nM for the second.

First: COc1cnc(C(F)F)cc1-c1cc(-c2nnc(C)o2)ccc1C(=O)Nc1nc(C#CC2CC2)cs1 [Compound 374]
Second: COc1cnc(C(F)F)cc1-c1cc(Cc2nnc(C)o2)ccc1C(=O)Nc1nnc(C#CC2CC2)s1 [Compound 244]
The IC50 of the first is higher: over 100 nM for the first, under 0.25 nM for the second. The second is the more potent here.

Compared with `COc1cnc(C(F)F)cc1-c1cc(C#CC2CCOC2)ncc1C(=O)Nc1ncc(C#CC2CC2)s1` (stereo not drawn) [Compound 223], `COc1cnc(C(F)F)cc1-c1cc(CC#N)ncc1C(=O)Nc1ncc(C#CC2CC2)s1` [Compound 198] is 1.8-fold higher in IC50: 0.29 nM for the first, 0.53 nM for the second.

Going from `CCc1nn(C)cc1-c1cc(-c2ccn(C)n2)ncc1C(=O)Nc1nnc(C#CC2CC2)s1` [Compound 433] to `COc1cnc(C(F)F)cc1-c1cc(-n2nccc(C)c2=O)ncc1C(=O)Nc1nnc(C#CC2CC2)s1` [Compound 453], the IC50 falls from 6.2 nM to under 0.25 nM. The second is the more potent here.

`COc1cnc(C(F)F)cc1-c1cc(-n2ccncc2=O)ccc1C(=O)Nc1nnc(C#CC2CC2)s1` [Compound 163] and `COc1cnc(C(F)F)cc1-c1cc(-n2ccnc(C)c2=O)ncc1C(=O)Nc1nnc(C#CC2CC2)s1` [Compound 458] cannot be ordered by IC50: under 0.25 nM for the first, 0.1 nM for the second.

Compared with `COc1cnc(C(F)F)cc1-c1cc(-c2cnn(C3COC3)c2)ccc1C(=O)Nc1nnc(C#CC2CC2)s1` [Compound 372], `COc1cnc(C(F)F)cc1-c1cc(-c2nnc(C)s2)ccc1C(=O)Nc1nnc(C#CC2CC2)s1` [Compound 138] is lower in IC50: 0.39 nM for the first, under 0.25 nM for the second.

`COc1cnc(C(F)F)cc1-c1cc(-n2ccc3occc3c2=O)ncc1C(=O)Nc1nnc(C#CC2CC2)s1` [Compound 439] and `COc1cnc(C(F)F)cc1-c1cc(N2CC(C)CCC2=O)ncc1C(=O)Nc1nnc(C#CC2CC2)s1` (stereo not drawn) [Compound 389] cannot be ordered by IC50: under 0.25 nM for the first, under 0.25 nM for the second.

`COc1cnc(C(F)F)cc1-c1cc(-c2ccn(CS(C)(=O)=O)n2)ccc1C(=O)Nc1nnc(C#CC2CC2)s1` [Compound 124, N-(5-(cyclopropylethynyl)-1,3,4-thiadiazol-2-yl)-2-(2-(difluoromethyl)-5-methoxypyridin-4-yl)-4-(1-((methylsulfonyl)methyl)-1H-pyrazol-3-yl)benzamide] and `COc1cnc(C(F)F)cc1-c1cc(N2CCN(C)CC2=O)ccc1C(=O)Nc1nnc(C#CC2CC2)s1` [Compound 109, N-(5-(cyclopropylethynyl)-1,3,4-thiadiazol-2-yl)-2-(2-(difluoromethyl)-5-methoxypyridin-4-yl)-4-(4-methyl-2-oxopiperazin-1-yl)benzamide] cannot be ordered by IC50: under 0.25 nM for the first, under 0.25 nM for the second.

Compared with `Cc1cc(C#Cc2nnc(NC(=O)c3ccncc3-c3cc(F)ccc3Cl)s2)n[nH]1` [Compound 29], `COc1cnc(Cl)cc1-c1cc(C#N)ccc1C(=O)Nc1nnc(C#CC2CC2)s1` [Compound 40] is lower in IC50: 0.6 nM for the first, under 0.25 nM for the second. The second is the more potent here.

`COc1ccc(C(F)(F)F)cc1-c1cnccc1C(=O)Nc1nnc(C2CC2c2ccc(C#N)cc2)s1` (stereo not drawn) [Compound 30] and `COc1cnc(C(F)(F)F)cc1-c1cnccc1C(=O)Nc1nnc(C2CC2c2ccc(C#N)cc2)s1` (stereo not drawn) [Compound 90] are within 1.5-fold of each other in IC50: 0.76 nM for the first, 0.8 nM for the second.

Compared with `COc1cnc(C(F)F)cc1-c1cc(Cl)ncc1C(=O)Nc1nc(C#N)c(C#CC2CC2)s1` [Compound 259], `COc1cnc(C(F)F)cc1-c1cc(-c2oc(C)nc2C)ncc1C(=O)Nc1nnc(C#CC2CC2)s1` [Compound 409] is lower in IC50: 1.2 nM for the first, under 0.25 nM for the second. The second is the more potent here.

Compared with `COc1cnc(C(F)F)cc1-c1cn(C)c(=O)cc1C(=O)Nc1nnc(C#CC2CC23CC3)s1` (stereo not drawn) [Compound 49], `Cc1nnc(Cn2cc(-c3cc(C(F)(F)F)ccc3Cl)c(C(=O)Nc3ncc(C#CC4CC4)s3)cc2=O)o1` [Compound 115, 5-(2-chloro-5-(trifluoromethyl)phenyl)-N-(5-(cyclopropylethynyl)thiazol-2-yl)-1-((5-methyl-1,3,4-oxadiazol-2-yl)methyl)-2-oxo-1,2-dihydropyridine-4-carboxamide] is lower in IC50: 0.75 nM for the first, under 0.25 nM for the second. The second is the more potent here.
